In this experiment the test system is L1210 leukemia ip in BDF1 mice, survival T/C. As to the kind of experiment: NCI In Vivo Anticancer Drug Screen. Data for tumor model L1210 Leukemia (intraperitoneal) in B6D2F1 (BDF1) mice. To be noted: endpoint: mean survival time, higher = longer survival. The essentials: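 Ratio derived from survival: compound-dosed mice over vehicle-dosed mice, all bearing a transplantable tumor.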

Setting [1] is: dose: 100.0 mg/kg/injection, schedule: Q01DX001 (ip), vehicle: carboxymethylcellulose (CMC).
Setting [2] is: dose: 200.0 mg/kg/injection, schedule: Q01DX001 (ip), vehicle: carboxymethylcellulose (CMC).
Setting [3] is: dose: 400.0 mg/kg/injection, schedule: Q01DX001 (ip), vehicle: carboxymethylcellulose (CMC).
[4] abbreviates: dose: 75.0 mg/kg/injection, schedule: Q01DX001 (ip), vehicle: saline.
The mark [5] stands for this setting: dose: 100.0 mg/kg/injection, schedule: Q01DX001 (ip), vehicle: saline.
Setting [6] is: dose: 200.0 mg/kg/injection, schedule: Q01DX001 (ip), vehicle: saline.
The mark [7] stands for this setting: dose: 400.0 mg/kg/injection, schedule: Q01DX001 (ip), vehicle: saline.
Setting [8] is: dose: 100.0 mg/kg/injection, schedule: Q04DX002 (ip), vehicle: saline with Tween-80.
The mark [9] stands for this setting: dose: 200.0 mg/kg/injection, schedule: Q04DX002 (ip), vehicle: saline with Tween-80.
Where [10] appears, read: dose: 400.0 mg/kg/injection, schedule: Q04DX002 (ip), vehicle: saline with Tween-80.

Where “and” joins values, the source holds several entries; their conditions need not be identical. Identical values can stand only once. Inconclusive results and toxic doses are left out. Peptide text beside a SMILES is read from it. * marks the point of attachment. Cbz = O=C(OCc1ccccc1)*

As to `NC(CCSCc1ccc(N(CCCl)CCCl)cc1)C(=O)O` (stereo not given), the T/C reads like this: (dose: 3.0 mg/kg/injection, schedule: Q01DX Z (ip), vehicle: saline) 123 % of control; (dose: 8.0 mg/kg/injection, schedule: Q01DX Z (ip), vehicle: saline) 113 % of control; (dose: 12.0 mg/kg/injection, schedule: Q01DX Z (ip), vehicle: saline) 113 % of control; (dose: 36.0 mg/kg/injection, schedule: Q01DX Z (ip), vehicle: saline) 114 % of control; (dose: 54.0 mg/kg/injection, schedule: Q01DX Z (ip), vehicle: saline) 103 % of control and 90 % of control; (dose: 81.0 mg/kg/injection, schedule: Q01DX Z (ip), vehicle: saline) 95 % of control. The T/C is 169 % of control under setting [1], 182 % of control under setting [2] and 113 % of control under setting [3].
Take `Nc1n[nH]c([N+](=O)[O-])n1`: the T/C (dose: 100.0 mg/kg/injection, schedule: Q04DX003 (ip), vehicle: saline sonified) is 100 % of control; the T/C (dose: 200.0 mg/kg/injection, schedule: Q04DX003 (ip), vehicle: saline sonified) is 103 % of control; the T/C (dose: 400.0 mg/kg/injection, schedule: Q04DX003 (ip), vehicle: saline sonified) was 109 % of control.
Consider `COC(=O)C1C2CC3c4[nH]c5cc(OC)ccc5c4CCN3CC2CC(OC)C1OC` (stereo not given), for which the T/C was 104 % of control (dose: 0.78 mg/kg/injection, schedule: Q03HX024 (ip), vehicle: saline); 96 % of control (dose: 1.56 mg/kg/injection, schedule: Q03HX024 (ip), vehicle: saline); 93 % of control (dose: 2.0 mg/kg/injection, schedule: Q01DX009 (ip), vehicle: saline); 100 % of control (dose: 3.12 mg/kg/injection, schedule: Q03HX024 (ip), vehicle: saline); 94 % of control (dose: 4.0 mg/kg/injection, schedule: Q01DX009 (ip), vehicle: saline); 110 % of control (dose: 6.25 mg/kg/injection, schedule: Q03HX024 (ip), vehicle: saline). For the same molecule, the T/C was 95 % of control (dose: 6.25 mg/kg/injection, schedule: Q04DX003 (ip), vehicle: saline); 88 % of control (dose: 8.0 mg/kg/injection, schedule: Q01DX009 (ip), vehicle: saline); 97 % of control (dose: 12.5 mg/kg/injection, schedule: Q04DX003 (ip), vehicle: saline); 89 % of control (dose: 16.0 mg/kg/injection, schedule: Q01DX009 (ip), vehicle: saline); 102 % of control (dose: 18.75 mg/kg/injection, schedule: Q01DX001 (ip), vehicle: saline); 102 % of control (dose: 25.0 mg/kg/injection, schedule: Q04DX003 (ip), vehicle: saline). The T/C (dose: 32.0 mg/kg/injection, schedule: Q01DX009 (ip), vehicle: saline) was 96 % of control; the T/C (dose: 37.5 mg/kg/injection, schedule: Q01DX001 (ip), vehicle: saline) was 112 % of control; the T/C (dose: 50.0 mg/kg/injection, schedule: Q04DX003 (ip), vehicle: saline) is 105 % of control and 122 % of control; the T/C under setting [4] was 112 % of control.
In the case of `C=CCC1(C(C)CCC)C(=O)NC(=S)NC1=O` (stereo not given), the T/C is, setting by setting: under setting [4], 100 % of control; (dose: 150.0 mg/kg/injection, schedule: Q01DX001 (ip), vehicle: saline) 98 % of control; (dose: 300.0 mg/kg/injection, schedule: Q01DX001 (ip), vehicle: saline) 90 % of control.
On to `CCCCCCCCCC[Se]C#N`, for which the T/C by setting is: (dose: 5.0 mg/kg/injection, schedule: Q01DX001 (ip), vehicle: saline) 112 % of control; (dose: 10.0 mg/kg/injection, schedule: Q01DX001 (ip), vehicle: saline) 114 % of control.
As to `CCC(C)c1nc2c([nH]1)c(=O)n(C)c(=O)n2C` (stereo not given), the T/C is 110 % of control (dose: 50.0 mg/kg/injection, schedule: Q01DX001 (ip), vehicle: saline); 101 % of control under setting [5]; 101 % of control under setting [6]; 104 % of control under setting [7].
On to `Nc1nc(-c2ccccc2)[nH]c(=O)c1N=O`, for which the T/C is 98 % of control under setting [8], 87 % of control under setting [9] and 102 % of control under setting [10].
For `O=C1/C(=C/c2ccncc2)CCc2cc(Cl)ccc21`, the T/C is 107 % of control (dose: 100.0 mg/kg/injection, schedule: Q04DX003 (ip), vehicle: carboxymethylcellulose (CMC)); 111 % of control (dose: 200.0 mg/kg/injection, schedule: Q04DX003 (ip), vehicle: carboxymethylcellulose (CMC)); 96 % of control (dose: 400.0 mg/kg/injection, schedule: Q04DX003 (ip), vehicle: carboxymethylcellulose (CMC)).
As to `CCCOc1ccc(C2=C(c3ccccc3)C(=O)C(c3ccccc3)=C2c2ccccc2)cc1`, the T/C is 94 % of control under setting [1], 100 % of control under setting [2] and 94 % of control under setting [3].
In the case of `COC(=O)c1ccc(=O)n(C/C=C(\C)CCC2OC2(C)C)c1` (stereo not given), the T/C was 100 % of control (dose: 100.0 mg/kg/injection, schedule: Q04DX003 (ip), vehicle: water); 104 % of control (dose: 200.0 mg/kg/injection, schedule: Q04DX003 (ip), vehicle: water); 102 % of control (dose: 400.0 mg/kg/injection, schedule: Q04DX003 (ip), vehicle: water).
On to `CNC(=O)c1cc(NC(=O)Nc2cccc(C3=NCCN3)c2)cc(NC(=O)Nc2cccc(C3=NCCN3)c2)c1`, for which the T/C runs as follows: (dose: 15.0 mg/kg/injection, schedule: Q01DX Z (ip), vehicle: saline) 114 % of control; (dose: 30.0 mg/kg/injection, schedule: Q01DX Z (oral), vehicle: saline) 103 % of control; (dose: 60.0 mg/kg/injection, schedule: Q01DX Z (ip), vehicle: saline) 120 % of control; (dose: 60.0 mg/kg/injection, schedule: Q01DX Z (oral), vehicle: saline) 119 % of control; (dose: 120.0 mg/kg/injection, schedule: Q01DX Z (oral), vehicle: saline) 101 % of control; (dose: 240.0 mg/kg/injection, schedule: Q01DX Z (oral), vehicle: saline) 95 % of control.
Consider `C=C(C(=O)O)C(=O)O`, for which the T/C (dose: 50.0 mg/kg/injection, schedule: Q01DX009 (ip), vehicle: saline) was 102 % of control; the T/C (dose: 100.0 mg/kg/injection, schedule: Q01DX009 (ip), vehicle: saline) was 116 % of control; the T/C (dose: 100.0 mg/kg/injection, schedule: Q04DX003 (ip), vehicle: saline with Tween-80) was 97 % of control; the T/C (dose: 200.0 mg/kg/injection, schedule: Q01DX009 (ip), vehicle: saline) was 100 % of control; the T/C (dose: 200.0 mg/kg/injection, schedule: Q04DX003 (ip), vehicle: saline with Tween-80) is 106 % of control.
For the molecule `COC(=O)C(CC(C)C)NC(=O)C(CC(N)=O)NC(=O)C(NC(=O)OCc1ccccc1)C(C)C` (stereo not drawn) (Cbz-Val-Asn-Leu-OMe; configuration not given here), the T/C reads like this: under setting [5], 95 % of control; under setting [6], 91 % of control; under setting [7], 91 % of control.
On to `O=C(O)c1ccccc1C(=O)Nc1ccccc1F`, for which the T/C by setting is: (dose: 100.0 mg/kg/injection, schedule: Q04DX003 (ip), vehicle: Klucel (hydroxypropylcellulose) (HPC)) 97 % of control; (dose: 200.0 mg/kg/injection, schedule: Q01DX009 (ip), vehicle: Klucel (hydroxypropylcellulose) (HPC)) 86 % of control; (dose: 200.0 mg/kg/injection, schedule: Q04DX003 (ip), vehicle: Klucel (hydroxypropylcellulose) (HPC)) 92 % of control; (dose: 400.0 mg/kg/injection, schedule: Q01DX009 (ip), vehicle: Klucel (hydroxypropylcellulose) (HPC)) 91 % of control; (dose: 400.0 mg/kg/injection, schedule: Q04DX003 (ip), vehicle: Klucel (hydroxypropylcellulose) (HPC)) 91 % of control.
For the molecule `CC(=O)NC1CCC(/C=C(\C#N)C2CCC([N+](=O)[O-])CC2)CC1` (stereo not given), the T/C runs as follows: (dose: 25.0 mg/kg/injection, schedule: Q04DX002 (ip), vehicle: saline with Tween-80) 97 % of control; (dose: 50.0 mg/kg/injection, schedule: Q04DX002 (ip), vehicle: saline with Tween-80) 94 % of control; under setting [8], 94 % of control; under setting [9], 86 % of control; under setting [10], 104 % of control.
On to `COc1cccc(N2C(=O)C=CC2=O)c1`, for which the T/C runs as follows: (dose: 1.56 mg/kg/injection, schedule: Q01DX009 (ip), vehicle: Klucel (hydroxypropylcellulose) (HPC)) 97 % of control; (dose: 3.12 mg/kg/injection, schedule: Q01DX009 (ip), vehicle: Klucel (hydroxypropylcellulose) (HPC)) 97 % of control.
